target: T1, recombinant human plasminogen activator inhibitor-1 (PAI-1) (Homo sapiens, UniProt P05121); test: Screening for PAI-1 inhibition (residual tPA activity, Spectrozyme-tPA chromogenic substrate); format: biochemical; settings: test compound at 100 Um; pH 6.6 buffer, 140 nM PAI-1, 70 nM tPA
T1 construct: purchased Molecular Innovations, Royal Oak, Mich
How it was run: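 PAI-1 at 140 nM, pH 6.6 buffer, preincubated 1 h at room temperature with compound (1-100 μM final, ≤0.2% DMSO), then 70 nM tPA added for 30 min. Residual tPA activity read by Spectrozyme-tPA absorbance at 405 nm at 0 and 60 min. Inhibition taken as residual tPA activity.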

T1 sequence (P05121 24-402): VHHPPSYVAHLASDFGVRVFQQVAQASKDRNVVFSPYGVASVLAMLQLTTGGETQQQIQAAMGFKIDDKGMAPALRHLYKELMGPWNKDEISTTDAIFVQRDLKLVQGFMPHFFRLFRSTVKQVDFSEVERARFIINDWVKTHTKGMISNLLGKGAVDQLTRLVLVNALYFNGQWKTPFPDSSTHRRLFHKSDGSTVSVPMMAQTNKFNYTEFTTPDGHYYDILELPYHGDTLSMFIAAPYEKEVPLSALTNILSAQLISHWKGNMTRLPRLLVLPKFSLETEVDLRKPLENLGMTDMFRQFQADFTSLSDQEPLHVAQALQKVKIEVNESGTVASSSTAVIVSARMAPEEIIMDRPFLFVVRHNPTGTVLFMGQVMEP

Row | SMILES | inhibition at 100 µM
1 | CC(C)(C)c1ccc(COc2cccc(/C=N/OCC(=O)O)c2OCc2ccc(C(C)(C)C)cc2)cc1 [Compound 135, {[((1E)-{2,3-bis[(4-tert-butylbenzyl)oxy]phenyl}methylidene)amino]oxy}acetic acid] | 58%
2 | Cn1cc(/C=N/OCC(=O)O)c2cc(OCc3ccccc3Cl)ccc21 [Compound 50, {[((1E)-{5-[(2-chlorobenzyl)oxy]-1-methyl-1H-indol-3-yl}methylidene)amino]oxy}acetic acid] | 31%
3 | O=C(O)CO/N=C/c1cccc(-c2cccc(OCc3ccc(Br)cc3)c2)c1 [Compound 60, {[((1E)-{3′-[(4-bromobenzyl)oxy]-1,1′-biphenyl-3-yl}methylidene)amino]oxy}acetic acid] | 88%
4 | Cn1cc(/C=N/OCC(=O)O)c2cc(OCc3cccc(C(F)(F)F)c3)ccc21 [Compound 43, ({[(1E)-(1-methyl-5-{[3-(trifluoromethyl)benzyl]oxy}-1H-indol-3-yl)methylidene]amino}oxy)acetic acid] | 81%
5 | O=C(O)CO/N=C/c1cccc(OCc2cccc(C(F)(F)F)c2)c1OCc1cccc(C(F)(F)F)c1 [Compound 139, ({[(1E)-(2,3-bis{[3-(trifluoromethyl)benzyl]oxy}phenyl)methylidene]amino}oxy)acetic acid] | 90%
6 | O=C(O)CO/N=C/c1cccc(-c2cccc(OCc3ccc(Cl)c(Cl)c3)c2)c1 [Compound 68, {[((1E)-{3′-[(3,4-dichlorobenzyl)oxy]-1,1′-biphenyl-3-yl}methylidene)amino]oxy}acetic acid] | 83%
7 | O=C(O)CO/N=C/c1ccc(OCc2cccc(Br)c2)c(OCc2cccc(Br)c2)c1 [Compound 117, {[((1E)-{3,4-bis[(3-bromobenzyl)oxy]phenyl}methylidene)amino]oxy}acetic acid] | 88%
8 | O=C(O)CO/N=C/c1cccc(-c2ccc(OCc3cc(C(F)(F)F)cc(C(F)(F)F)c3)cc2)c1 [Compound 76, ({[(1E)-(4′-{[3,5-bis(trifluoromethyl)benzyl]oxy}-1,1′-biphenyl-3-yl)methylidene]amino}oxy)acetic acid] | 73%
9 | C#CCn1cc(/C=N/OCC(=O)O)c2cc(OCc3ccc(C(F)(F)F)cc3)ccc21 [Compound 31, ({[(1E)-(1-(2-propynyl)-5-{[4-(trifluoromethyl)benzyl]oxy}-1H-indol-3-yl)methylidene]amino}oxy)acetic acid] | 90%
10 | Cn1cc(/C=N/OCC(=O)O)c2cc(OCc3ccc(Cl)c(Cl)c3)ccc21 [Compound 54, {[((1E)-{5-[(3,4-dichlorobenzyl)oxy]-1-methyl-1H-indol-3-yl}methylidene)amino]oxy}acetic acid] | 91%
11 | CCn1cc(/C=N/OCC(=O)O)c2cc(OCc3ccc(Br)cc3)ccc21 [Compound 8, {[((1E)-{5-[(4-bromobenzyl)oxy]-1-ethyl-1H-indol-3-yl}methylidene)amino]oxy}acetic acid] | 63%
12 | CC(C)(C)c1ccc(COc2ccc(-c3ccc(/C=N/OCC(=O)O)cc3)cc2)cc1 [Compound 102, {[((1E)-{4′-[(4-tert-butylbenzyl)oxy]-1,1′-biphenyl-4-yl}methylidene)amino]oxy}acetic acid] | 26%
13 | C#CCn1cc(/C=N/OCC(=O)O)c2cc(OCc3cccc(Br)c3)ccc21 [Compound 36, [({(1E)-[5-[(3-bromobenzyl)oxy]-1-(2-propynyl)-1H-indol-3-yl]methylidene}amino)oxy]acetic acid] | 92%
14 | O=C(O)CO/N=C/c1ccc(-c2ccc(OCc3ccccc3Cl)cc2)cc1 [Compound 107, {[((1E)-{4′-[(2-chlorobenzyl)oxy]-1,1′-biphenyl-4-yl}methylidene)amino]oxy}acetic acid] | 30%
15 | O=C(O)CO/N=C/c1ccc(OCc2ccc(Br)cc2)cc1OCc1ccc(Br)cc1 [Compound 125, {[((1E)-{2,4-bis[(4-bromobenzyl)oxy]phenyl}methylidene)amino]oxy}acetic acid] | 90%
16 | C=CCn1cc(/C=N/OCC(=O)O)c2cc(OCc3ccccc3)ccc21 [Compound 40, [({(1E)-[1-allyl-5-(benzyloxy)-1H-indol-3-yl]methylidene}amino)oxy]acetic acid] | 50%
17 | O=C(O)CO/N=C/c1ccc(-c2ccc(OCc3cccc(Br)c3)cc2)cc1 [Compound 103, {[((1E)-{4′-[(3-bromobenzyl)oxy]-1,1′-biphenyl-4-yl}methylidene)amino]oxy}acetic acid] | 62%

Row | SMILES | inhibition at 100 µM
18 | O=C(O)CO/N=C/c1cccc(-c2cccc(OCc3cccc(Br)c3)c2)c1 [Compound 62, {[((1E)-{3′-[(3-bromobenzyl)oxy]-1,1′-biphenyl-3-yl}methylidene)amino]oxy}acetic acid] | 84%
19 | O=C(O)CO/N=C/c1cccc(-c2cccc(OCc3cc(C(F)(F)F)cc(C(F)(F)F)c3)c2)c1 [Compound 61, ({[(1E)-(3′-{[3,5-bis(trifluoromethyl)benzyl]oxy}-1,1′-biphenyl-3-yl)methylidene]amino}oxy)acetic acid] | 74%
20 | O=C(O)CO/N=C/c1cccc(C#CCOc2ccc(Br)cc2)c1 [Compound 169, {[((1E)-{3-[3-(4-bromophenoxy)prop-1-ynyl]phenyl}methylidene)amino]oxy}acetic acid] | 60%
21 | O=C(O)CO/N=C/c1cccc(-c2ccc(OCc3ccccc3)cc2)c1 [Compound 79, [({(1E)-[4′-(benzyloxy)-1,1′-biphenyl-3-yl]methylidene}amino)oxy]acetic acid] | 53%
22 | O=C(O)CO/N=C/c1ccc(-c2cccc(OCc3ccccc3)c2)cc1 [Compound 93, [({(1E)-[3′-(benzyloxy)-1,1′-biphenyl-4-yl]methylidene}amino)oxy]acetic acid] | 85%
23 | O=C(O)CO/N=C/c1cn(Cc2ccccc2)c2ccc(OCc3cccc(Br)c3)cc12 [Compound 15, {[((1E)-{1-benzyl-5-[(3-bromobenzyl)oxy]-1H-indol-3-yl}methylidene)amino]oxy}acetic acid] | 71%
24 | C=CCn1cc(/C=N/OCC(=O)O)c2cc(OCc3cccc(C(F)(F)F)c3)ccc21 [Compound 22, ({[(1E)-(1-allyl-5-{[3-(trifluoromethyl)benzyl]oxy}-1H-indol-3-yl)methylidene]amino}oxy)acetic acid] | 80%
25 | O=C(O)CO/N=C/c1cccc(C#CCOc2cc(C(F)(F)F)cc(C(F)(F)F)c2)c1 [Compound 170, ({[(1E)-(3-{3-[3,5-bis(trifluoromethyl)phenoxy]prop-1-ynyl}phenyl)methylidene]amino}oxy)acetic acid] | 73%
26 | Cn1cc(/C=N/OCC(=O)O)c2cc(OCc3ccc4ccccc4c3)ccc21 [Compound 57, [({(1E)-[1-methyl-5-(2-naphthylmethoxy)-1H-indol-3-yl]methylidene}amino)oxy]acetic acid] | 64%
27 | O=C(O)CO/N=C/c1cn(Cc2ccccc2)c2ccc(OCc3cc(C(F)(F)F)cc(C(F)(F)F)c3)cc12 [Compound 12, ({[(1E)-(1-benzyl-5-{[3,5-bis(trifluoromethyl)benzyl]oxy}-1H-indol-3-yl)methylidene]amino}oxy)acetic acid] | 57%
28 | Cc1cccc(COc2ccc(/C=N/OCC(=O)O)c(OCc3cccc(C)c3)c2)c1 [Compound 129, {[((1E)-{2,4-bis[(3-methylbenzyl)oxy]phenyl}methylidene)amino]oxy}acetic acid] | 90%
29 | CCn1cc(/C=N/OCC(=O)O)c2cc(OCc3cccc(Br)c3)ccc21 [Compound 14, {[((1E)-{5-[(3-bromobenzyl)oxy]-1-ethyl-1H-indol-3-yl}methylidene)amino]oxy}acetic acid] | 80%
30 | O=C(O)CO/N=C/c1cc(OCc2cccc(Cl)c2)cc(OCc2cccc(Cl)c2)c1 [Compound 142, {[((1E)-{3,5-bis[(3-chlorobenzyl)oxy]phenyl}methylidene)amino]oxy}acetic acid] | 86%
31 | C#CCn1cc(/C=N/OCC(=O)O)c2cc(OCc3cccc(C(F)(F)F)c3)ccc21 [Compound 42, ({[(1E)-(1-(2-propynyl)-5-{[3-(trifluoromethyl)benzyl]oxy}-1H-indol-3-yl)methylidene]amino}oxy)acetic acid] | 96%
32 | O=C(O)CO/N=C/c1cccc(-c2ccc(OCc3ccc(Cl)cc3)cc2)c1 [Compound 81, {[((1E)-{4′-[(4-chlorobenzyl)oxy]-1,1′-biphenyl-3-yl}methylidene)amino]oxy}acetic acid] | 28%
33 | O=C(O)CO/N=C/c1cc(OCc2cccc(Br)c2)ccc1OCc1cccc(Br)c1 [Compound 158, {[((1E)-{2,5-bis[(3-bromobenzyl)oxy]phenyl}methylidene)amino]oxy}acetic acid] | 69%
34 | C=CCn1cc(/C=N/OCC(=O)O)c2cc(OCc3ccc(C)cc3)ccc21 [Compound 19, {[((1E)-{1-allyl-5-[(4-methylbenzyl)oxy]-1H-indol-3-yl}methylidene)amino]oxy}acetic acid] | 73%

Source: patent publication US7411083B2, “Substituted acetic acid derivatives” (Wyeth, priority 2003, dated 2008)
